Laboratory results as given in ChEMBL document CHEMBL1138862 (J Med Chem, 2006).
Converted amounts (≈) assume the structure as drawn.

How the values were obtained:
Escherichia coli [1] = assay: Antibacterial activity against Escherichia coli W3110; format: functional
Escherichia coli [2] = assay: Antibacterial activity against Escherichia coli pTMV19; format: functional
Escherichia coli [3] = assay: Antibacterial activity against Escherichia coli pTMV19 in presence of mevalonate; format: functional
[4] = Inhibition of Trypanosoma brucei FPPS expressed in Escherichia coli
Escherichia coli [5] = assay: Antibacterial activity against Escherichia coli K12 by broth microdilution method; format: functional, organism-based
Escherichia coli [6] = assay: Antibacterial activity against Escherichia coli K12; format: functional
[7] = molecular target: T1, Farnesyl diphosphate synthase (Escherichia coli K-12, UniProt P22939); assay: Inhibition of Escherichia coli FPPS
T1 sequence (P22939 whole entry): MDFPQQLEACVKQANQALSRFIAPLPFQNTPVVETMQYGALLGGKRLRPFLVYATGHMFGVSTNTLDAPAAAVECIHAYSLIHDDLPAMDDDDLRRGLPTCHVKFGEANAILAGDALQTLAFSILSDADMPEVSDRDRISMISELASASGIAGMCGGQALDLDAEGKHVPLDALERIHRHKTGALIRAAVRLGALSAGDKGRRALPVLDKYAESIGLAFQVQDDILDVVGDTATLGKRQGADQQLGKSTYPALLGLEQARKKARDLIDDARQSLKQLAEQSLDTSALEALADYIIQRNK

[8] = molecular target: T2, 1-deoxy-D-xylulose 5-phosphate reductoisomerase (Escherichia coli K-12, UniProt P45568); assay: Inhibition of Escherichia coli DXR
T2 sequence (P45568 whole entry): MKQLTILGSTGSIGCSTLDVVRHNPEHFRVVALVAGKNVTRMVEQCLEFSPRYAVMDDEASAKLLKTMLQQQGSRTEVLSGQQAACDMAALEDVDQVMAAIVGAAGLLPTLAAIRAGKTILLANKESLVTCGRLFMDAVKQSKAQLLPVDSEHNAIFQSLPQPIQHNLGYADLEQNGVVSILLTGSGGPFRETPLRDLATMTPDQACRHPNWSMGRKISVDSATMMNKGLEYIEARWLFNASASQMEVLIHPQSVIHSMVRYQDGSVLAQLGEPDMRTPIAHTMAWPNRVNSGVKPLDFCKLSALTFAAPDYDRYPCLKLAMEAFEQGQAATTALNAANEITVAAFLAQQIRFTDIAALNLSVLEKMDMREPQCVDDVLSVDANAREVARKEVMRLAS

Escherichia coli [9] = assay: Antibacterial activity against Escherichia coli K12 in presence of fosmidomycin; format: functional
Escherichia coli [10] = assay: Ratio, MIC/MBC for Escherichia coli K12; format: functional
Escherichia coli [11] = assay: Ratio, MIC/MBC for Escherichia coli K12 in presence of fosmidomycin; format: functional

Row | SMILES | inhibition zone (IZ) (Escherichia coli [1]) [mm] | inhibition zone (IZ) (Escherichia coli [2]) [mm] | inhibition zone (IZ) (Escherichia coli [3]) [mm] | other results
1 | O=CN(O)CCCP(=O)(O)O [FOSMIDOMYCIN] | 20 | 19 | 0 | IC50 [4]: 200 nM; IC50 (Escherichia coli [5]): 220 nM; MBC (Escherichia coli [6]): 2500 µM (≈ 458 µg/mL); MIC (Escherichia coli [6]): 312 µM (≈ 57.1 µg/mL)
2 | O=P(O)(O)C(O)(Cc1cnc2ccccn12)P(=O)(O)O [MINODRONIC ACID] | 10 | 0 | 0 | IC50 [7]: 1100 nM
3 | CN(CCCCc1ccccc1)CCC(O)(P(=O)(O)O)P(=O)(O)O | 19 | 18 | 17 | IC50 [8]: 245000 nM; IC50 [4]: 444000 nM; IC50 (Escherichia coli [5]): 33000 nM; IC50 [7]: 1300 nM; MBC (Escherichia coli [6]): 1250 µM (≈ 477 µg/mL); MIC (Escherichia coli [6]): 156 µM (≈ 59.5 µg/mL); MBC (Escherichia coli [9]): 625 µM; MIC (Escherichia coli [9]): 312 µM; Ratio (Escherichia coli [10]): 0.13; Ratio (Escherichia coli [11]): 0.5
4 | O=P(O)(O)C(O)(Cn1cnc2ccccc21)P(=O)(O)O | 14 | 0 | 13 | IC50 [7]: 700 nM
5 | Cc1cccc(NC(P(=O)(O)O)P(=O)(O)O)n1 | 7 | 10 | 8 | –
6 | O=P(O)(O)C(O)(Cc1cccc(Br)c1)P(=O)(O)O | 12 | 14 | 0 | –
7 | CCCCCCCCCC(O)(P(=O)(O)O)P(=O)(O)O | 9 | 0 | 0 | –
8 | O=P(O)(O)C(Nc1ccc(Br)cn1)P(=O)(O)O | 12 | 11 | 8 | –
9 | O=P(O)(O)C(Nc1cccc(-c2ccccc2)c1)P(=O)(O)O | 8 | 8 | 0 | –
10 | O=P(O)(O)C(Nc1ccccn1)P(=O)(O)O | 7 | 8 | 12 | –
11 | CC1(C)S[C@@H]2[C@H](NC(=O)C(C(=O)O)c3ccccc3)C(=O)N2[C@H]1C(=O)O (some centres not stated) [CARBENICILLIN] | – | – | – | MBC (Escherichia coli [6]): 20 µM (≈ 7.57 µg/mL); MIC (Escherichia coli [6]): 20 µM (≈ 7.57 µg/mL); Ratio (Escherichia coli [10]): 1
12 | CCCCCCC(CCCC)C(O)(P(=O)(O)O)P(=O)(O)O (configuration not stated) | 0 | 0 | 0 | –
13 | CN(CCOc1ccccc1)CCC(O)(P(=O)(O)O)P(=O)(O)O | 11 | 15 | 11 | –
14 | Cc1ncccc1NC(P(=O)(O)O)P(=O)(O)O | 7 | 8 | 12 | –
15 | O=P(O)(O)C(NC1CCCCC1)P(=O)(O)O [(CYCLOHEXYLAMINO)METHYLENEDIPHOSPHONIC ACID] | 7 | 8 | 9 | –
16 | O=P(O)(O)C(O)(Cc1cccc(Cl)c1)P(=O)(O)O | 8 | 11 | 0 | –

Row | SMILES | inhibition zone (IZ) (Escherichia coli [1]) [mm] | inhibition zone (IZ) (Escherichia coli [2]) [mm] | inhibition zone (IZ) (Escherichia coli [3]) [mm] | other results
17 | O=P(O)(O)C(Nc1ccc(I)cn1)P(=O)(O)O | 7 | 7 | 7 | –
18 | O=P(O)(O)C(NC1CCCCCCC1)P(=O)(O)O [(CYCLOOCTYLAMINO)METHYLENEDIPHOSPHONIC ACID] | 7 | 8 | 0 | –
19 | Cc1ccc(C)c(COc2ccc(C)nc2NC(P(=O)(O)O)P(=O)(O)O)c1 | 0 | 0 | 0 | –
20 | O=P(O)(O)C(N1CCCCCC1)P(=O)(O)O [N-(HEXAMETHYLENEIMINO)METHYLENEBISPHOSPHONIC ACID] | 0 | 0 | 0 | –
21 | O=P(O)(O)C(Nc1ccc(-c2ccccc2)cc1)P(=O)(O)O | 9 | 8 | 7 | –
22 | Cc1cccc(CC(O)(P(=O)(O)O)P(=O)(O)O)c1 | 0 | 0 | 0 | –
23 | Cc1cc(Br)cnc1NC(P(=O)(O)O)P(=O)(O)O | 0 | 0 | 0 | –
24 | Cc1cc(C)nc(NC(P(=O)(O)O)P(=O)(O)O)c1 | 11 | 7 | 0 | –
25 | CN(C)[C@@H]1C(O)=C(C(N)=O)C(=O)[C@@]2(O)C(O)=C3C(=O)c4c(O)cccc4[C@@](C)(O)[C@H]3C[C@@H]12 [TETRACYCLINE] | 21 | 21 | 22 | –
26 | O=P(O)(O)C(Sc1ccccn1)P(=O)(O)O | 0 | 0 | 0 | –
27 | O=C(N[C@H](CO)[C@H](O)c1ccc([N+](=O)[O-])cc1)C(Cl)Cl [CHLORAMPHENICOL] | 24 | 20 | 19 | –
28 | O=P(O)(O)C(Nc1ccc(Cl)cn1)P(=O)(O)O | 13 | 9 | 12 | –
29 | O=C(O)c1cn(C2CC2)c2cc(N3CCNCC3)c(F)cc2c1=O [CIPROFLOXACIN] | – | – | – | MBC (Escherichia coli [6]): 0.076 µM (≈ 0.0252 µg/mL); MIC (Escherichia coli [6]): 0.038 µM (≈ 0.0126 µg/mL); Ratio (Escherichia coli [10]): 0.5
30 | CCCCCCCCCCC(O)(P(=O)(O)O)P(=O)(O)O | 0 | 0 | 0 | –
31 | CCCCCCc1ccc(NC(P(=O)(O)O)P(=O)(O)O)cc1 | 0 | 0 | 0 | –
32 | CCn1c2ccccc2c2cc(NC(P(=O)(O)O)P(=O)(O)O)ccc21 | 0 | 0 | 0 | –
